{"source": "patent US20230033285A1", "about": "“Protease Inhibitors for Treatment of Coronavirus Infections” (The Scripps Research Institute, priority 2021, published 2023)", "data": [{"tested_on": "SARS-CoV-2", "experiment": "microbe, parasite or virus in culture", "type": "cell-based", "conditions": "Severe acute respiratory syndrome coronavirus 2, HeLa-ACE2, 24 h, read-out: EC50, μM (Hela)", "units": {"EC50": "µM"}, "values": [{"smiles": "CC1(C)[C@@H]2[C@@H](C(=O)N[C@H](C=O)C[C@@H]3CCNC3=O)N(C(=O)COc3ccc(OC(F)(F)F)cc3)C[C@@H]21", "note": "[Compound 36, (1R,2S,5S)-6,6-dimethyl-N-((S)-1-oxo-3-((S)-2-oxopyrrolidin-3-yl)propan-2-yl)-3-(2-(4-(trifluoromethoxy)phenoxy)acetyl)-3-azabicyclo[3.1.0]hexane-2-carboxamide]", "EC50": "0.2 to 0.5"}, {"smiles": "CC(C)(C)[C@H](NC(=O)C(F)(F)F)C(=O)N1C[C@H]2[C@@H]([C@H]1C(=O)N[C@H](C#N)C[C@@H]1CCCNC1=O)C2(C)C", "note": "[Compound 63, (1R,2S,5S)-N-((S)-1-cyano-2-((S)-2-oxopiperidin-3-yl)ethyl)-3-((S)-3,3-dimethyl-2-(2,2,2-trifluoroacetamido)butanoyl)-6,6-dimethyl-3-azabicyclo[3.1.0]hexane-2-carboxamide]", "EC50": "< 0.05"}]}, {"tested_on": "SARS-CoV-2", "experiment": "microbe, parasite or virus in culture", "type": "cell-based", "conditions": "Severe acute respiratory syndrome coronavirus 2; HeLa-ACE2 cells infected with SARS-CoV-2, 24 h, immunofluorescence of infected cells; read-out: EC50, μM (Hela)", "units": {"EC50": "µM"}, "values": [{"smiles": "CC(C)(C)NC(=O)C(=O)N1C[C@@H]2CCC[C@@H]2[C@H]1C(=O)N[C@@H](C[C@@H]1CCNC1=O)C(=O)CO", "note": "[Compound 31, (1S,3aR,6aS)-2-(2-(tert-butylamino)-2-oxoacetyl)-N-((S)-4-hydroxy-3-oxo-1-((S)-2-oxopyrrolidin-3-yl)butan-2-yl)octahydrocyclopenta[c]pyrrole-1-carboxamide]", "EC50": "> 1"}, {"smiles": "CC(C)(C)NC(=O)C(=O)N1C[C@@H]2CCC[C@@H]2[C@H]1C(=O)N[C@@H](C[C@@H]1CCCNC1=O)C(=O)CO", "note": "[Compound 32, (1S,3aR,6aS)-2-(2-(tert-butylamino)-2-oxoacetyl)-N-((S)-4-hydroxy-3-oxo-1-((S)-2-oxopiperidin-3-yl)butan-2-yl)octahydrocyclopenta[c]pyrrole-1-carboxamide]", "EC50": "0.5 to 1"}, {"smiles": "O=C(Nc1ccccc1F)C(=O)N1C[C@@H]2CCC[C@@H]2[C@H]1C(=O)N[C@@H](C[C@@H]1CCCNC1=O)C(=O)CO", "note": "[Compound 33, (1S,3aR,6aS)-2-(2-((2-fluorophenyl)amino)-2-oxoacetyl)-N-((S)-4-hydroxy-3-oxo-1-((S)-2-oxopiperidin-3-yl)butan-2-yl)octahydrocyclopenta[c]pyrrole-1-carboxamide]", "EC50": "0.05 to 0.2"}, {"smiles": "CC(C)C[C@H](NC(=O)C(=O)Nc1ccccc1F)C(=O)N[C@@H](C[C@@H]1CCCCNC1=O)C(=O)CO", "note": "[Compound 34, N^1-(2-fluorophenyl)-N^2-((S)-1-(((S)-4-hydroxy-3-oxo-1-((S)-2-oxoazepan-3-yl)butan-2-yl)amino)-4-methyl-1-oxopentan-2-yl)oxalamide]", "EC50": "> 1"}, {"smiles": "COc1cccc2[nH]c(C(=O)N[C@@H](CC(C)C)C(=O)N[C@H](C=O)C[C@@H]3CCNC3=O)cc12", "note": "[Compound 35, 4-methoxy-N-((S)-4-methyl-1-oxo-1-(((S)-1-oxo-3-((S)-2-oxopyrrolidin-3-yl)propan-2-yl)amino)pentan-2-yl)-1H-indole-2-carboxamide]", "EC50": "> 1"}, {"smiles": "CC(C)C[C@H](NC(=O)C(=O)Nc1ccccc1)C(=O)N[C@H](C=O)C[C@@H]1CCNC1=O", "note": "[Compound 37, N^1-((S)-4-methyl-1-oxo-1-(((S)-1-oxo-3-((S)-2-oxopyrrolidin-3-yl)propan-2-yl)amino)pentan-2-yl)-N^2-phenyloxalamide]", "EC50": "> 1"}, {"smiles": "Cc1ccccc1NC(=O)C(=O)N[C@@H](CC(C)C)C(=O)N[C@H](C=O)C[C@@H]1CCNC1=O", "note": "[Compound 38, N^1-((S)-4-methyl-1-oxo-1-(((S)-1-oxo-3-((S)-2-oxopyrrolidin-3-yl)propan-2-yl)amino)pentan-2-yl)-N^2-(o-tolyl)oxalamide]", "EC50": "0.05 to 0.2"}, {"smiles": "CC(C)C[C@H](NC(=O)C(=O)Nc1ccccc1F)C(=O)N[C@H](C=O)C[C@@H]1CCNC1=O", "note": "[Compound 39, N^1-(2-fluorophenyl)-N^2-((S)-4-methyl-1-oxo-1-(((S)-1-oxo-3-((S)-2-oxopyrrolidin-3-yl)propan-2-yl)amino)pentan-2-yl)oxalamide]", "EC50": "0.05 to 0.2"}, {"smiles": "O=C[C@H](C[C@@H]1CCNC1=O)NC(=O)[C@H](CC1CCCCC1)NC(=O)C(=O)Nc1ccccc1F", "note": "[Compound 40, N^1-((S)-3-cyclohexyl-1-oxo-1-(((S)-1-oxo-3-((S)-2-oxopyrrolidin-3-yl)propan-2-yl)amino)propan-2-yl)-N^2-(2-fluorophenyl)oxalamide]", "EC50": "0.05 to 0.2"}, {"smiles": "CC(C)C[C@H](NC(=O)C(=O)Nc1ccccc1F)C(=O)N[C@H](C=O)C[C@@H]1CCCNC1=O", "note": "[Compound 41, N^1-(2-fluorophenyl)-N^2-((S)-4-methyl-1-oxo-1-(((S)-1-oxo-3-((S)-2-oxopiperidin-3-yl)propan-2-yl)amino)pentan-2-yl)oxalamide]", "EC50": "0.05 to 0.2"}, {"smiles": "CC(C)C[C@H](NC(=O)C(=O)NC1CCCCC1)C(=O)N[C@H](C=O)C[C@@H]1CCNC1=O", "note": "[Compound 42, N^1-cyclohexyl-N^2-((S)-4-methyl-1-oxo-1-(((S)-1-oxo-3-((S)-2-oxopyrrolidin-3-yl)propan-2-yl)amino)pentan-2-yl)oxalamide]", "EC50": "0.5 to 1"}, {"smiles": "CC(C)C[C@H](NC(=O)C(=O)NC1(C)CC1)C(=O)N[C@H](C=O)C[C@@H]1CCNC1=O", "note": "[Compound 43, N^1-((S)-4-methyl-1-oxo-1-(((S)-1-oxo-3-((S)-2-oxopyrrolidin-3-yl)propan-2-yl)amino)pentan-2-yl)-N^2-(1-methylcyclopropyl)oxalamide]", "EC50": "> 1"}, {"smiles": "O=C[C@H](C[C@@H]1CCNC1=O)NC(=O)[C@@H]1[C@H]2CCC[C@H]2CN1C(=O)C(=O)Nc1ccccc1F", "note": "[Compound 44, (1S,3aR,6aS)-2-(2-((2-fluorophenyl)amino)-2-oxoacetyl)-N-((S)-1-oxo-3-((S)-2-oxopyrrolidin-3-yl)propan-2-yl)octahydrocyclopenta[c]pyrrole-1-carboxamide]", "EC50": "> 1"}, {"smiles": "O=C[C@H](C[C@@H]1CCCNC1=O)NC(=O)[C@@H]1[C@H]2CCC[C@H]2CN1C(=O)COc1ccc(Cl)cc1Cl", "note": "[Compound 45, (1S,3aR,6aS)-2-(2-(2,4-dichlorophenoxy)acetyl)-N-((S)-1-oxo-3-((S)-2-oxopiperidin-3-yl)propan-2-yl)octahydrocyclopenta[c]pyrrole-1-carboxamide]", "EC50": "0.05 to 0.2"}, {"smiles": "CC(C)(C)NC(=O)C(=O)N1C[C@H]2[C@@H]([C@H]1C(=O)N[C@H](C=O)C[C@@H]1CCCNC1=O)C2(C)C", "note": "[Compound 46, (1R,2S,5S)-3-(2-(tert-butylamino)-2-oxoacetyl)-6,6-dimethyl-N-((S)-1-oxo-3-((S)-2-oxopiperidin-3-yl)propan-2-yl)-3-azabicyclo[3.1.0]hexane-2-carboxamide]", "EC50": "> 1"}, {"smiles": "CC(C)(NC(=O)C(=O)N1C[C@@H]2CCC[C@@H]2[C@H]1C(=O)N[C@H](C=O)C[C@@H]1CCCNC1=O)C(F)(F)F", "note": "[Compound 47, (1S,3aR,6aS)-2-(2-oxo-2-((1,1,1-trifluoro-2-methylpropan-2-yl)amino)acetyl)-N-((S)-1-oxo-3-((S)-2-oxopiperidin-3-yl)propan-2-yl)octahydrocyclopenta[c]pyrrole-1-carboxamide]", "EC50": "0.5 to 1"}, {"smiles": "CC1(C)[C@@H]2[C@@H](C(=O)N[C@H](C=O)C[C@@H]3CCCNC3=O)N(C(=O)C(=O)NC3CCCCC3)C[C@@H]21", "note": "[Compound 48, (1R,2S,5S)-3-(2-(cyclohexylamino)-2-oxoacetyl)-6,6-dimethyl-N-((S)-1-oxo-3-((S)-2-oxopiperidin-3-yl)propan-2-yl)-3-azabicyclo[3.1.0]hexane-2-carboxamide]", "EC50": "0.5 to 1"}, {"smiles": "CC(C)C[C@H](NC(=O)C(=O)Nc1ccccc1F)C(=O)N[C@H](C#N)C[C@@H]1CCNC1=O", "note": "[Compound 58]", "EC50": "0.5 to 1"}, {"smiles": "CC1(C)[C@@H]2[C@@H](C(=O)N[C@H](C#N)C[C@@H]3CCNC3=O)N(C(=O)C(=O)Nc3ccccc3F)C[C@@H]21", "note": "[Compound 59, (1R,2S,5S)-N-((S)-1-cyano-2-((S)-2-oxopyrrolidin-3-yl)ethyl)-3-(2-((2-fluorophenyl)amino)-2-oxoacetyl)-6,6-dimethyl-3-azabicyclo[3.1.0]hexane-2-carboxamide]", "EC50": "> 1"}, {"smiles": "N#C[C@H](C[C@@H]1CCCNC1=O)NC(=O)[C@@H]1[C@H]2CCC[C@H]2CN1C(=O)C(=O)Nc1ccccc1F", "note": "[Compound 60, (1S,3aR,6aS)-N-((S)-1-cyano-2-((S)-2-oxopiperidin-3-yl)ethyl)-2-(2-((2-fluorophenyl)amino)-2-oxoacetyl)octahydrocyclopenta[c] pyrrole-1-carboxamide]", "EC50": "0.5 to 1"}, {"smiles": "N#C[C@H](C[C@@H]1CCCNC1=O)NC(=O)[C@@H]1[C@H]2CCC[C@H]2CN1C(=O)COc1ccc(Cl)cc1Cl", "note": "[Compound 61, (1S,3aR,6aS)-N-((S)-1-cyano-2-((S)-2-oxopiperidin-3-yl)ethyl)-2-(2-(2,4-dichlorophenoxy)acetyl)octahydrocyclo-penta[c]pyrrole-1-carboxamide]", "EC50": "0.5 to 1"}, {"smiles": "N#C[C@H](C[C@@H]1CCNC1=O)NC(=O)[C@@H]1[C@H]2CCC[C@H]2CN1C(=O)C(=O)Nc1ccccc1F", "note": "[Compound 62, (1S,3aR,6aS)-N-((S)-1-cyano-2-((S)-2-oxopyrrolidin-3-yl)ethyl)-2-(2-((2-fluorophenyl)amino)-2-oxoacetyl)octahydrocyclopenta[c] pyrrole-1-carboxamide]", "EC50": "> 1"}, {"smiles": "N#C[C@H](C[C@@H]1CCNC1=O)NC(=O)[C@@H]1CC2(CC2)CN1C(=O)C(=O)Nc1ccccc1F", "note": "[Compound 64, (S)-N-((S)-1-cyano-2-((S)-2-oxopyrrolidin-3-yl)ethyl)-5-(2-((2-fluorophenyl)amino)-2-oxoacetyl)-5-azaspiro[2.4]heptane-6-carboxamide]", "EC50": "> 1"}, {"smiles": "CC1(C)[C@@H]2[C@@H](C(=O)N[C@H](C#N)C[C@@H]3CCNC3=O)N(C(=O)C(=O)NC3(C(F)(F)F)CC3)C[C@@H]21", "note": "[Compound 65, (1R,2S,5S)-N-((S)-1-cyano-2-((S)-2-oxopyrrolidin-3-yl)ethyl)-6,6-dimethyl-3-(2-oxo-2-((1-(trifluoromethyl)cyclopropyl)amino)acetyl)-3-azabicyclo[3.1.0]hexane-2-carboxamide]", "EC50": "> 1"}]}]}
